Results from publication PMC10353189, “Hybridization of the effective pharmacophores for treatment of epilepsy: design, synthesis, in vivo anticonvulsant activity, and in silico studies of phenoxyphenyl-1,3,4-oxadiazole-thio-N-phenylacetamid hybrids” (BMC Chemistry, 2023).
Where two headings read alike, the source gives them in different places.

Assays:
[1] = test system: PTZ-induced lethal convulsion in mice; assay: Pentylenetetrazole (PTZ) induced seizure test; format: in vivo, Male NMRI mice; settings: Mus musculus; for responders at 5 mg/kg: dose 5 mg/kg ip; for responders at 10 mg/kg: dose 10 mg/kg ip; for responders at 1 mg/kg: dose 1 mg/kg ip; for responders at 50 mg/kg: dose 50 mg/kg ip; for responders at 2 mg/kg: dose 2 mg/kg ip
[2] = test system: MES-induced seizure in mice; assay: Maximal electroshock (MES) induced seizure test; format: in vivo, Male NMRI mice; settings: for responders at 1 mg/kg / responders at 2 mg/kg / responders at 5 mg/kg / responders at 10 mg/kg / responders at 20 mg/kg / responders at 50 mg/kg / responders at 100 mg/kg: Mus musculus; for responders at 1 mg/kg: dose 1 mg/kg ip; for responders at 2 mg/kg / MES Number of animals protected / Number of tested animals: dose 2 mg/kg ip; for responders at 5 mg/kg: dose 5 mg/kg ip; for responders at 10 mg/kg: dose 10 mg/kg ip; for responders at 20 mg/kg: dose 20 mg/kg ip; for MES Number of animals protected / Number of tested animals: with flumazenil 1 mg/kg ip 15 min before seizure induction; for responders at 50 mg/kg: dose 50 mg/kg ip; for responders at 100 mg/kg: dose 100 mg/kg ip
[3] = 30 min before PTZ 100 mg/kg ip, read-out: PTZ Number of animals protected / Number of tested animals (converted)
[4] = PTZ 100 mg/kg ip, read-out: PTZ %Protection
[5] = MES 50 mA, 60 Hz, 0.2 s, read-out: MES Number of animals protected / Number of tested animals (converted)
[6] = 30 min before PTZ 100 mg/kg ip, read-out: PTZ Number of animals protected / Number of tested animals
[7] = MES 50 mA, 60 Hz, 0.2 s, read-out: MES Number of animals protected / Number of tested animals

Compound | responders at 5 mg/kg [1, 3] | responders at 5 mg/kg [1, 4] | responders at 1 mg/kg [2, 5] | responders at 1 mg/kg ([2]; read-out: MES %Protection) | responders at 2 mg/kg [2, 5] | responders at 2 mg/kg ([2]; read-out: MES %Protection) | responders at 5 mg/kg [2, 5] | responders at 5 mg/kg ([2]; read-out: MES %Protection) | responders at 10 mg/kg [2, 5] | responders at 10 mg/kg ([2]; read-out: MES %Protection) | responders at 20 mg/kg [2, 5] | responders at 20 mg/kg ([2]; read-out: MES %Protection) | also measured
O=C(CSc1nnc(-c2ccccc2Oc2ccccc2)o1)Nc1ccccc1 [Compound 8a, 2-((5-(2-phenoxyphenyl)-1,3,4-oxadiazol-2-yl)thio)-N -phenylacetamide] | 0% | 0% | 62.5% | 62.5% | 50% | 50% | 50% | 50% | 50% | 50% | 50% | 50% | –
O=C(CSc1nnc(-c2ccccc2Oc2ccccc2)o1)Nc1cccc(Br)c1 [Compound 8i, N-(3-bromophenyl)-2-((5-(2-phenoxyphenyl)-1,3,4-oxadiazol-2-yl)thio)acetamide] | 0% | 0% | 0% | 0% | – | – | 50% | 50% | 25% | 25% | 50% | 50% | –
O=C(CSc1nnc(-c2ccccc2Oc2ccccc2)o1)Nc1ccc(F)cc1 [Compound 8d, N-(4-fluorophenyl)-2-((5-(2-phenoxyphenyl)-1,3,4-oxadiazol-2-yl)thio)acetamide] | 0% | 0% | 25% | 25% | 50% | 50% | 50% | 50% | 50% | 50% | 25% | 25% | –
O=C(CSc1nnc(-c2ccccc2Oc2ccccc2)o1)Nc1ccc(Br)cc1 [Compound 8j, N-(4-bromophenyl)-2-((5-(2-phenoxyphenyl)-1,3,4-oxadiazol-2-yl)thio)acetamide] | 0% | 0% | 25% | 25% | – | – | 50% | 50% | 50% | 50% | – | – | responders at 10 mg/kg [1, 3]: 25%; responders at 10 mg/kg [1, 4]: 25%
CN1C(=O)CN=C(c2ccccc2)c2cc(Cl)ccc21 [Diazepam, reference compound] | – | – | – | – | – | – | – | – | – | – | – | – | MES Number of animals protected / Number of tested animals [2]: 0/6
O=C(CSc1nnc(-c2ccccc2Oc2ccccc2)o1)Nc1ccc(F)cc1F [Compound 8e, N-(2,4-difluorophenyl)-2-((5-(2-phenoxyphenyl)-1,3,4-oxadiazol-2-yl)thio)acetamide] | 0% | 0% | 25% | 25% | – | – | 25% | 25% | 25% | 25% | – | – | –
Cc1c(NC(=O)CSc2nnc(-c3ccccc3Oc3ccccc3)o2)cccc1[N+](=O)[O-] [Compound 8m, N-(2-methyl-3-nitrophenyl)-2-((5-(2-phenoxyphenyl)-1,3,4-oxadiazol-2-yl)thio)acetamide] | – | – | 25% | 25% | 50% | 50% | – | – | 0% | 0% | – | – | responders at 1 mg/kg [1, 6]: 0%; responders at 1 mg/kg [1, 4]: 0%; responders at 50 mg/kg [2, 7]: 0%; responders at 50 mg/kg ([2]; read-out: MES %Protection): 0%
O=C(CSc1nnc(-c2ccccc2Oc2ccccc2)o1)Nc1cc(Cl)cc(Cl)c1 [Compound 8h, N-(3,5-dichlorophenyl)-2-((5-(2-phenoxyphenyl)-1,3,4-oxadiazol-2-yl)thio)acetamide] | 0% | 0% | 0% | 0% | 25% | 25% | 25% | 25% | 25% | 25% | 50% | 50% | –
Cc1ccc(NC(=O)CSc2nnc(-c3ccccc3Oc3ccccc3)o2)cc1 [Compound 8b, 2-((5-(2-phenoxyphenyl)-1,3,4-oxadiazol-2-yl)thio)-N -(p-tolyl)acetamide] | – | – | 0% | 0% | – | – | – | – | 25% | 25% | – | – | responders at 50 mg/kg [1, 6]: 0%; responders at 50 mg/kg [1, 4]: 0%; responders at 50 mg/kg [2, 7]: 40%; responders at 50 mg/kg ([2]; read-out: MES %Protection): 40%; responders at 100 mg/kg [2, 5]: 75%; responders at 100 mg/kg ([2]; read-out: MES %Protection): 75%
O=C(CSc1nnc(-c2ccccc2Oc2ccccc2)o1)Nc1cccc(Cl)c1 [Compound 8g, N-(3-chlorophenyl)-2-((5-(2-phenoxyphenyl)-1,3,4-oxadiazol-2-yl)thio)acetamide] | 0% | 0% | 62.5% | 62.5% | 25% | 25% | 50% | 50% | 75% | 75% | 62.5% | 62.5% | –
O=C(CSc1nnc(-c2ccccc2Oc2ccccc2)o1)Nc1ccccc1Cl [Compound 8f, N-(2-chlorophenyl)-2-((5-(2-phenoxyphenyl)-1,3,4-oxadiazol-2-yl)thio)acetamide] | 0% | 0% | – | – | – | – | 0% | 0% | 25% | 25% | 75% | 75% | –
O=C(CSc1nnc(-c2ccccc2Oc2ccccc2)o1)Nc1ccc([N+](=O)[O-])cc1 [Compound 8L, N-(4-nitrophenyl)-2-((5-(2-phenoxyphenyl)-1,3,4-oxadiazol-2-yl)thio)acetamide] | 25% | 25% | 25% | 25% | 25% | 25% | 75% | 75% | 50% | 50% | – | – | responders at 2 mg/kg [1, 6]: 0%; responders at 2 mg/kg [1, 4]: 0%; responders at 10 mg/kg [1, 3]: 0%; responders at 10 mg/kg [1, 4]: 0%
O=C(CSc1nnc(-c2ccccc2Oc2ccccc2)o1)Nc1ccccc1[N+](=O)[O-] [Compound 8k, N-(2-nitrophenyl)-2-((5-(2-phenoxyphenyl)-1,3,4-oxadiazol-2-yl)thio)acetamide] | – | – | – | – | 75% | 75% | 75% | 75% | 50% | 50% | – | – | responders at 2 mg/kg [1, 6]: 0%; responders at 2 mg/kg [1, 4]: 0%; MES Number of animals protected / Number of tested animals [2]: 0/4
COc1ccc(NC(=O)CSc2nnc(-c3ccccc3Oc3ccccc3)o2)cc1 [Compound 8c, N-(4-methoxyphenyl)-2-((5-(2-phenoxyphenyl)-1,3,4-oxadiazol-2-yl)thio)acetamide] | – | – | 0% | 0% | 25% | 25% | 25% | 25% | 25% | 25% | 75% | 75% | responders at 2 mg/kg [1, 6]: 0%; responders at 2 mg/kg [1, 4]: 0%
